In ChEMBL document CHEMBL1137553, “An expeditious synthesis of tamoxifen, a representative SERM (selective estrogen receptor modulator), via the three-component coupling reaction among aromatic aldehyde, cinnamyltrimethylsilane, and beta-chlorophenetole” (Bioorg Med Chem, 2007):
In brackets after ≈: the same amount, converted by molar mass.

Each molecule was assayed on HL-60 (assay: Antiproliferative activity against human HL60 cells assessed as cell viability at 5 ug/ml after 4 hrs by MTT assay). Details: HL-60, 4 h, read-out: Activity.
Type: functional

Compound	viability at 5 µg/mL [%]
CC/C(=C(/c1ccc(Br)cc1)c1ccc(OCCN(C)C)cc1)c1ccccc1	59.2
CC/C(=C(\c1ccc(I)cc1)c1ccc(OCCN2CCCC2)cc1)c1ccccc1 [IDOXIFENE]	82.7
CC/C(=C(/c1ccc(OCCN(C)C)cc1)c1cccc(I)c1)c1ccccc1	104
CC/C(=C(\c1ccccc1)c1ccc(OCCN(C)C)cc1)c1ccccc1 [TAMOXIFEN]	53.5

What follows are molecules tested on HL-60 (assay: Antiproliferative activity against human HL60 cells assessed as cell viability at 10 ug/ml after 4 hrs by MTT assay). Details: HL-60, 4 h, read-out: Activity.
Type: functional

Compound	viability at 10 µg/mL [%]
CC/C(=C(/c1ccc(Br)cc1)c1ccc(OCCN(C)C)cc1)c1ccccc1	13.2
CC/C(=C(\c1ccc(I)cc1)c1ccc(OCCN2CCCC2)cc1)c1ccccc1 [IDOXIFENE]	25.5
CC/C(=C(/c1ccc(OCCN(C)C)cc1)c1cccc(I)c1)c1ccccc1	97.2
CC/C(=C(\c1ccccc1)c1ccc(OCCN(C)C)cc1)c1ccccc1 [TAMOXIFEN]	15.9

These molecules were tested on HL-60 (assay: Antiproliferative activity against human HL60 cells assessed as cell viability at 20 ug/ml after 4 hrs by MTT assay). Details: HL-60, 4 h, read-out: Activity.
Type: functional

Compound	viability at 20 µg/mL [%]
CC/C(=C(/c1ccc(Br)cc1)c1ccc(OCCN(C)C)cc1)c1ccccc1	7.01
CC/C(=C(\c1ccc(I)cc1)c1ccc(OCCN2CCCC2)cc1)c1ccccc1 [IDOXIFENE]	8.72
CC/C(=C(/c1ccc(OCCN(C)C)cc1)c1cccc(I)c1)c1ccccc1	36
CC/C(=C(\c1ccccc1)c1ccc(OCCN(C)C)cc1)c1ccccc1 [TAMOXIFEN]	5.45

What follows are molecules tested on HL-60 (assay: Growth inhibition of human HL60 cells after 4 hrs by MTT assay). Details: HL-60, 4 h.
Type: functional, cell-based

Compound	IC50 [µg/mL]
CC/C(=C(/c1ccc(Br)cc1)c1ccc(OCCN(C)C)cc1)c1ccccc1	6 (≈ 13.3 µM)
CC/C(=C(\c1ccc(I)cc1)c1ccc(OCCN2CCCC2)cc1)c1ccccc1 [IDOXIFENE]	7.7 (≈ 14.7 µM)
CC/C(=C(/c1ccc(OCCN(C)C)cc1)c1cccc(I)c1)c1ccccc1	19 (≈ 38.2 µM)
CC/C(=C(\c1ccccc1)c1ccc(OCCN(C)C)cc1)c1ccccc1 [TAMOXIFEN]	5.9 (≈ 15.9 µM)

The molecules below were run on HL-60 (assay: Antiproliferative activity against human HL60 cells assessed as cell viability after 4 hrs by MTT assay). Details: not given.
Type: functional

Compound	Activity [%]
CC/C(=C(/c1ccc(Br)cc1)c1ccc(OCCN(C)C)cc1)c1ccccc1	100
CC/C(=C(\c1ccc(I)cc1)c1ccc(OCCN2CCCC2)cc1)c1ccccc1 [IDOXIFENE]	100
CC/C(=C(/c1ccc(OCCN(C)C)cc1)c1cccc(I)c1)c1ccccc1	100
CC/C(=C(\c1ccccc1)c1ccc(OCCN(C)C)cc1)c1ccccc1 [TAMOXIFEN]	100

What follows are molecules tested on HL-60 (assay: Antiproliferative activity against human HL60 cells assessed as cell viability at 1 ug/ml after 4 hrs by MTT assay). Details: HL-60, 4 h, read-out: Activity.
Type: functional

Compound	viability at 1 µg/mL [%]
CC/C(=C(/c1ccc(Br)cc1)c1ccc(OCCN(C)C)cc1)c1ccccc1	99.9
CC/C(=C(\c1ccc(I)cc1)c1ccc(OCCN2CCCC2)cc1)c1ccccc1 [IDOXIFENE]	106
CC/C(=C(/c1ccc(OCCN(C)C)cc1)c1cccc(I)c1)c1ccccc1	109
CC/C(=C(\c1ccccc1)c1ccc(OCCN(C)C)cc1)c1ccccc1 [TAMOXIFEN]	96.2
